In ChEMBL document CHEMBL5104190, “Design, Synthesis, Biological Activity, and Structural Analysis of Novel Des-C-Ring and Aromatic-D-Ring Analogues of 1α,25-Dihydroxyvitamin D3” (J Med Chem, 2022):
Calls of active or inactive are those of the source. The calls are words filed in the database; no cut-off is given here.

What was measured:
MCF7 = test: Increase in E-cadherin expression level in human MCF7 cells at 0.1 to 100 nM measured for 48 hrs by Western blot analysis; type: functional, cell-based; conditions: dose 0.1-100 nM
CYP24A1 = biological target: T1, CYP24A1 (Homo sapiens, UniProt Q07973); test: Induction of CYP24A1 (unknown orgin) transcriptional activity trasfected in human MCF7 cells at 0.1 to 1000 nM incuabted for 48 hrs by luciferase reporter gene assay relative to (1R,3S)-5-(2-((1R,3aS,7aR)-1-((R)-6-hydroxy-6-methylheptan-2-yl)-7a-methyloctahydro-4H-inden-4-ylidene)ethylidene)-4-methylenecyclohexane-1,3-diol; type: ADME, cell-based; conditions: MCF7 cells transfected with CYP24A1 luciferase reporter, dose 0.1-1000 nM
T1 sequence (Q07973 whole entry): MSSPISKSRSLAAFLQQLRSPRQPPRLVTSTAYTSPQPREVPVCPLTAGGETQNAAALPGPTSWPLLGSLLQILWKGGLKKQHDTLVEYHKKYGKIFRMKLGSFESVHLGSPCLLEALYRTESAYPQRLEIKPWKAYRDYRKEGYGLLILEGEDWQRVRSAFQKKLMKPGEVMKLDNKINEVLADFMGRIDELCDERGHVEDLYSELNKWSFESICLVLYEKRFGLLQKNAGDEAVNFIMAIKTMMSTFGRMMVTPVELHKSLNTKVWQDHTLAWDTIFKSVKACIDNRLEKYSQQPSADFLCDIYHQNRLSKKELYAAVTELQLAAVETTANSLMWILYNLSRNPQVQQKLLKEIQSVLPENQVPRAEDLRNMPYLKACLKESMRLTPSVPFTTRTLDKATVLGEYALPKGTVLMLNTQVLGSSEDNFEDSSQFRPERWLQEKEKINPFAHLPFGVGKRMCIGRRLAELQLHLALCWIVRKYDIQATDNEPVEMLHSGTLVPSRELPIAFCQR

Vitamin D3 receptor = biological target: T2, Vitamin D3 receptor (Homo sapiens, UniProt P11473); test: Competitive binding affinity to His-tagged human VDR LBD (156 to 453 residues) expressed in Escherichia coli […] (DE3) cells in presence of 1,25D3 by fluorescent polarization assay
T2 sequence (P11473 whole entry): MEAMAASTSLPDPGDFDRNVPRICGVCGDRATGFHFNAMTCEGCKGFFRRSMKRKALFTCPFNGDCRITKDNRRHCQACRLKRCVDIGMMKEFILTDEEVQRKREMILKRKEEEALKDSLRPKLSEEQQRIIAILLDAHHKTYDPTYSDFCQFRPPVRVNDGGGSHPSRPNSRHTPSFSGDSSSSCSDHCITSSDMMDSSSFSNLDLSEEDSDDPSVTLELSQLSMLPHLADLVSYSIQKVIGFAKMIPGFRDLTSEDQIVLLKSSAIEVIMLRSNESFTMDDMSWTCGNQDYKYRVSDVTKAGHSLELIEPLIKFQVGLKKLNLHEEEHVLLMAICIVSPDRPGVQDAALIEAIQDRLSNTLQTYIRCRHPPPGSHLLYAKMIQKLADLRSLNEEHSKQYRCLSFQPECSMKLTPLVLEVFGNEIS

[1] = biological target: T3, Vitamin D3 receptor (Homo sapiens) (UniProt P11473); test: Competitive binding affinity to His-tagged human VDR LBD (156 to 453 residues) expressed in Escherichia coli […] (DE3) cells at 0.1 to 100 nM in presence of 1,25D3 by fluorescent polarization assay relative to (1R,3S)-5-(2-((1R,3aS,7aR)-1-((R)-6-hydroxy-6-methylheptan-2-yl)-7a-methyloctahydro-4H-inden-4-ylidene)ethylidene)-4-methylenecyclohexane-1,3-diol; conditions: dose 0.1-100 nM
T3 sequence (whole entry): T2 sequence (P11473 whole entry)

| Emax at 48 h (CYP24A1) [%] | IC50 (Vitamin D3 receptor) [nM] | Emax [1] [%] | Compound | Activity (MCF7) |
| --- | --- | --- | --- | --- |
| 54 | 27.3 | 4.5 | C=C1/C(=C\C=C(/CCCCCC(C)(C)O)c2cccc(CCCCCC(C)(C)O)c2)C[C@@H](O)C[C@@H]1O | Active |
| 102 | 15.7 | 7.9 | C=C1/C(=C\C=C\c2cc(CCCCCC(C)(C)O)cc(CCCCCC(C)(C)O)c2)C[C@@H](O)C[C@@H]1O | Active |
